Counter-ions that a name gives are not always drawn. Like-named read-outs stand apart in the source and are kept apart here.
Experiments:
rLUJV/ZsG = assay: microbe, parasite or virus in culture; assay type: cell-based, Lujo virus; details: for activity at 0.05 µM / activity at 0.5 µM / activity at 5 µM: Huh-7, read-out: Relative ZsG (%) Mean
wt LUJV = assay type: cell-based, Lujo virus
in vitro = details: human; for CC50: CC50 (50% cell cytotoxicity concentration)
Huh7 cells = details: for CC50: human
JUNV [1] = details: cited from earlier work
LASV [2] = details: read-out: EC50 for LASV inhibition; cited from earlier work
LASV [3] = details: read-out: EC50 against LASV; cited from earlier work
LUJV = details: cited from earlier work
LASV [4] = details: read-out: EC50 reported for LASV; cited from earlier work
JUNV [5] = details: read-out: EC50 reported for JUNV; cited from earlier work
[6] = Mammarenavirus lujoense, Huh-7, read-out: EC50 (concentration inhibiting ZsG expression by 50%)
[7] = Mammarenavirus lujoense, 500 nM
[8] = Mammarenavirus lujoense, 5000 nM
[9] = read-out: EC50 (concentration inhibiting ZsG expression by 50%)

SMILES | EC50 (rLUJV/ZsG; [6]) | activity at 0.05 µM (rLUJV/ZsG; Mammarenavirus lujoense, 50 nM) | activity at 0.5 µM (rLUJV/ZsG; [7]) | activity at 5 µM (rLUJV/ZsG; [8]) | EC50 (rLUJV/ZsG; [9]) | viability at 0.05 µM (in vitro) | viability at 0.5 µM (in vitro) | viability at 5 µM (in vitro) | CC50 (in vitro) | SI (selectivity index, CC50 divided by EC50) (rLUJV/ZsG) | CC50 (Huh7 cells) | Relative ZsG (%) Mean (rLUJV/ZsG; 50 nM) | Relative ZsG (%) Mean (rLUJV/ZsG; 500 nM) | Relative ZsG (%) Mean (rLUJV/ZsG; 5000 nM) | Cell Viability (%) Mean (Huh7 cells; 50 nM) | Cell Viability (%) Mean (Huh7 cells; 500 nM) | Cell Viability (%) Mean (Huh7 cells; 5000 nM) | further results
Nc1ccn([C@@H]2O[C@H](CO)[C@@H](O)[C@H]2F)c(=O)n1 [2′-deoxy-2′-fluorocytidine (2-dFC), 2′-deoxy-2′-fluorocytidine] | 0.54 ± 0.21 µM | 90% | 27% | 2% | 0.533 ± 0.205 µM | 117% | 98% | 105% | > 50 µM | – | – | – | – | – | – | – | – | reduction of wt LUJV viral titers (wt LUJV): approximately 4 logs; viability (in vitro): > 75%
NCC(=O)Nc1ccc(-n2nc(C(F)(F)F)cc2-c2ccc3c(ccc4ccccc43)c2)cc1 [AR-12] | 1.2 µM | 74% | 54% | 2% | 1.23 ± 0.444 µM | 129% | 115% | 1% | 5.5 ± 1.7 µM | 4.5 | 5.52 ± 1.67 µM | – | – | – | – | – | – | –
CC[C@H](CC#N)OC(=O)N[C@@H](C)c1cccc(NC(=O)Nc2ccc(-c3cnco3)c(OC)c2)c1 [AVN-944] | 0.2 ± 0.09 µM | 43% | 4% | 1% | 0.201 ± 0.089 µM | 103% | 97% | 64% | > 12.5 µM | – | – | – | – | – | – | – | – | reduction of wt LUJV viral titers (wt LUJV): approximately 4 logs; reduction of JUNV titers (JUNV [1]): > 90%; viability (in vitro): > 75%
CN(C)C/C=C/C(=O)Nc1cc2c(Nc3ccc(F)c(Cl)c3)ncnc2cc1O[C@H]1CCOC1 [Afatinib] | 2.26 ± 0.73 µM | 76% | 74% | 2% | 2.26 ± 0.734 µM | 126% | 136% | 60% | 7.64 ± 0.7 µM | 3.4 | 7.64 ± 0.699 µM | – | – | – | – | – | – | –
Cc1cccc(/C=N/Nc2cc(N3CCOCC3)nc(OCCc3ccccn3)n2)c1 [Apilimod] | 1.44 ± 0.6 µM | 91% | 45% | 24% | 1.44 ± 0.637 µM | 130% | 115% | 80% | 14.4 ± 3.25 µM | – | – | – | – | – | – | – | – | reduction of wt LUJV viral titers (wt LUJV): approximately 4 logs; EC50 (LASV [2]): 0.05 µM; viability (in vitro): > 75%
O=C(NCCCNc1nc(Nc2cccc(NC(=O)N3CCCC3)c2)ncc1I)c1cccs1 [BX-795] | 0.6 ± 0.27 µM | 80% | 41% | 9% | 0.598 ± 0.274 µM | 128% | 105% | 60% | 9.91 ± 1.09 µM | – | 9.91 ± 1.09 µM | – | – | – | – | – | – | reduction of wt LUJV viral titers (wt LUJV): approximately 4 logs; viability (in vitro): > 75%
Cc1c(-c2ccc(O)cc2)n(Cc2ccc(OCCN3CCCCCC3)cc2)c2ccc(O)cc12 [Bazedoxifene HCL] | 1.72 ± 0.79 µM | 110% | 103% | 2% | 1.72 ± 0.481 µM | 141% | 147% | 84% | 6.68 ± 2.08 µM | 3.9 | 6.68 ± 2.08 µM | – | – | – | – | – | – | –
Cc1c(-c2ccc(-c3ccccc3F)cc2)nc2ccc(F)cc2c1C(=O)O [Brequinar] | 0.11 ± 0.02 µM | 27% | 2% | 2% | 0.109 ± 0.015 µM | 113% | 85% | 67% | > 12.5 µM | – | – | – | – | – | – | – | – | reduction of wt LUJV viral titers (wt LUJV): approximately 4 logs; viability (in vitro): > 75%
NC(=O)c1nc(F)c[nH]c1=O [Favipiravir (T-705), Favipiravir] | 2.95 ± 0.69 µM | 94% | 95% | 22% | 2.95 ± 0.693 µM | 101% | 104% | 96% | > 50 µM | – | – | – | – | – | – | – | – | reduction of wt LUJV viral titers (wt LUJV): approximately 4 logs; viability (in vitro): > 75%
C[C@@H](c1nc(-c2ccc(C#N)cc2)cs1)[C@](O)(Cn1cncn1)c1cc(F)ccc1F [Isavucanazole] | 6.1 ± 0.9 µM | 73% | 75% | 34% | 6.11 ± 0.926 µM | 114% | 121% | 75% | 12.7 ± 3.97 µM | 2.1 | – | – | – | – | – | – | – | EC50 (LASV [3]): 1.2 µM; inhibition of LUJV (LUJV): did not inhibit
COc1c(C)c2c(c(O)c1C/C=C(\C)CCC(=O)O)C(=O)OC2 [Mycophenolic acid (MPA), Mycophenolic acid] | 0.24 ± 0.1 µM | 72% | 7% | 2% | 0.238 ± 0.097 µM | 132% | 100% | 48% | 2 ± 0.4 µM | 8.6 | 2.04 µM | – | – | – | – | – | – | –
O=C(Nc1ccc([N+](=O)[O-])cc1Cl)c1cc(Cl)ccc1O [Niclosamide] | 0.09 µM | 30% | 2% | 2% | 0.085 ± 0.029 µM | 77% | 2% | 1% | 0.27 µM | 3.2 | 0.272 ± 0.034 µM | – | – | – | – | – | – | EC50 (LASV [2]): 0.08 µM
COC1=CC(c2cc3ccccc3[nH]2)=N/C1=C\c1[nH]c(C)cc1C [Obatoclax] | 0.36 ± 0.1 µM | 36% | 4% | 10% | 0.355 ± 0.105 µM | 130% | 25% | 2% | 1.5 ± 0.33 µM | 4.2 | 1.5 ± 0.332 µM | – | – | – | – | – | – | –
Cc1ccc(Nc2nccc(N(C)c3ccc4c(C)n(C)nc4c3)n2)cc1S(N)(=O)=O.Cl [Pazopanib HCl] | – | – | – | – | – | – | – | – | – | – | – | 77% | 59% | 24% | 134% | 116% | 54% | –
[N-]=[N+]=N[C@]1(CO)O[C@@H](n2ccc(N)nc2=O)[C@@H](O)[C@@H]1O [R09187] | – | – | – | – | – | – | – | – | – | – | – | 116% | 122% | 88% | 99% | 98% | 102% | –
[N-]=[N+]=N[C@]1(CO)O[C@@H](n2ccc(N)nc2=O)[C@H](O)[C@@H]1O [R-1479] | – | – | – | – | – | – | – | – | – | – | – | 118% | 100% | 103% | 104% | 101% | 96% | –
CC(C)C(=O)OC[C@H]1O[C@@H](n2ccc(N)nc2=O)[C@](C)(F)[C@@H]1OC(=O)C(C)C [R-7128] | – | – | – | – | – | – | – | – | – | – | – | 133% | 80% | 126% | 100% | 98% | 103% | –
O=C(c1ccc(OCCN2CCCCC2)cc1)c1c(-c2ccc(O)cc2)sc2cc(O)ccc12 [Raloxifene (Evista), Raloxifene] | 1.5 ± 0.793 µM | 87% | 89% | 3% | – | 139% | 136% | 86% | 9.3 ± 1.3 µM | 6.2 | 9.29 ± 1.31 µM | – | – | – | – | – | – | –
NC(=O)c1ncn([C@@H]2O[C@H](CO)[C@@H](O)[C@H]2O)n1 [Ribavirin] | 11.1 ± 1.4 µM | 94% | 73% | 63% | – | 124% | 122% | 133% | > 50 µM | – | – | – | – | – | – | – | – | EC50 (LASV [4]): 2.47 µM; EC50 (JUNV [5]): 18.3 µM
COc1ccc(-n2cnc3cc(NCc4ccc(C(C)C)cc4)ccc32)cc1 [ST-193] | – | – | – | – | – | – | – | – | – | – | – | 107% | 102% | 91% | 105% | 98% | 101% | –
Nc1cccc(-c2cc3c(Oc4cccc(O)c4)ncnc3[nH]2)c1 [TWS119] | – | – | – | – | – | – | – | – | – | – | – | 74% | 74% | 13% | 135% | 124% | 36% | –
CC/C(=C(\c1ccccc1)c1ccc(OCCN(C)C)cc1)c1ccccc1 [Tamoxifene citrate] | 3.59 ± 0.72 µM | 84% | 78% | 2% | 3.59 ± 0.724 µM | 123% | 123% | 85% | 7.37 ± 1.04 µM | 2.1 | 7.37 ± 1.04 µM | – | – | – | – | – | – | –
C[C@H](Cn1cnc2c(N)ncnc21)OCP(=O)(O)O [Tenofivir] | – | – | – | – | – | – | – | – | – | – | – | 114% | 138% | 96% | 101% | 100% | 100% | –

— paper PMC8310135 (Viruses, 2021)
